PubChem BioAssay (NCI)
Where “and” joins values, the source holds several entries; their conditions need not be identical. Identical values can stand only once.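 Method: 48-hour compound exposure of cells in 96-well plates, five concentrations, linear interpolation of endpoints. GI50 is the concentration that inhibits growth by half. At the TGI there is no net growth.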

What was measured:
Assay in all cases: NCI anticancer screen, dose series, 48 h
HCC-2998 colon = test system: HCC-2998 colon
HCT-116 colon = test system: HCT-116 colon
HOP-62 NSCLC = test system: HOP-62 NSCLC
MDA-MB-435 = test system: MDA-MB-435
NCI-H23 lung = test system: NCI-H23 lung
OVCAR-3 ovarian = test system: OVCAR-3 ovarian
SF-539 CNS = test system: SF-539 CNS
SK-MEL-28 melanoma = test system: SK-MEL-28 melanoma
TK-10 renal = test system: TK-10 renal
UACC-257 melanoma = test system: UACC-257 melanoma

| SMILES | GI50 (HCC-2998 colon) | TGI (HCC-2998 colon) | GI50 (HCT-116 colon) | TGI (HCT-116 colon) | GI50 (HOP-62 NSCLC) | TGI (HOP-62 NSCLC) | GI50 (MDA-MB-435) | TGI (MDA-MB-435) | GI50 (NCI-H23 lung) | TGI (NCI-H23 lung) | GI50 (OVCAR-3 ovarian) | TGI (OVCAR-3 ovarian) | GI50 (SF-539 CNS) | TGI (SF-539 CNS) | GI50 (SK-MEL-28 melanoma) | TGI (SK-MEL-28 melanoma) | GI50 (TK-10 renal) | TGI (TK-10 renal) | GI50 (UACC-257 melanoma) | TGI (UACC-257 melanoma) |
| --- | --- | --- | --- | --- | --- | --- | --- | --- | --- | --- | --- | --- | --- | --- | --- | --- | --- | --- | --- | --- |
| N=C(N)SCc1c2ccccc2c(CSC(=N)N)c2ccccc12 | 11.3 µM | 23.7 µM | 2.59 µM | 16.6 µM | 10.5 µM | 26.5 µM | 12.1 µM | 32.6 µM | 4.04 µM | 20.5 µM | 12.4 µM | 30.2 µM | 5.11 µM | 19.4 µM | 10.6 µM | 24.1 µM | 22.3 µM | 45.3 µM | 23.2 µM | 45 µM |
| CCCCCCn1c(-c2ccc(C(=O)O/N=C(\N)c3ccc4ccccc4c3)cc2)nc(-c2ccccc2)c1-c1ccccc1 | > 100 µM | > 100 µM | 4.2 µM | > 100 µM | 5.77 µM | > 100 µM | 7.42 µM | > 100 µM | 7.57 µM | > 100 µM | > 100 µM | > 100 µM | 12.5 µM | > 100 µM | > 100 µM | > 100 µM | 16 µM | > 88.5 µM | > 100 µM | > 100 µM |
| N#Cc1c(N2CCOCC2)nc(=S)[nH]c1-c1ccccc1 | 77.2 µM | > 100 µM | 42.4 µM | > 100 µM | 7.93 µM | 68.1 µM | 29.7 µM | > 100 µM | 34.5 µM | > 100 µM | 16.9 µM | > 100 µM | 13.2 µM | > 100 µM | 20.5 µM | > 100 µM | 20.7 µM | > 100 µM | 49.8 µM | > 100 µM |
| COCCNc1ccc2c3c(cccc13)C(=O)N(CCN(C)C)C2=O | 10.1 µM | > 25 µM | 6.65 µM | > 25 µM | 7.55 µM | > 25 µM | 8.15 µM | > 25 µM | 8.04 µM | > 25 µM | 8.65 µM | > 25 µM | 7.04 µM | > 25 µM | 7.16 µM | 23.1 µM | 4.2 µM | 22.1 µM | 7.23 µM | > 25 µM |
| COc1cc(/C(=C2/O[C@@H]([C@H]3COC(C)(C)O3)[C@H]3OC(C)(C)O[C@@H]23)c2ccc3ccccc3c2)cc(OC)c1OC | 6.47 µM | > 100 µM | 2.51 µM | 5.7 µM | 9.78 µM | 31.4 µM | 3.61 µM | 17.5 µM | 5.43 µM | > 100 µM | 2.39 µM | 5.67 µM | 14.3 µM | 79 µM | 2.86 µM | 9.65 µM | 3.2 µM | 7.2 µM | 4.28 µM | 67.9 µM |
| COC(=O)C1=COC(C)C2CN3CCc4c([nH]c5cc(OC)c(OC)cc45)C3CC12 (centres undefined) | – | > 100 µM | > 100 µM and 43.6 µM | > 100 µM | – | > 100 µM | – | > 100 µM | – | > 100 µM | – | > 100 µM | – | > 100 µM | > 100 µM and 34.2 µM | > 100 µM | – | > 100 µM | – | > 100 µM |
| CC(C)(C)[Si](C)(C)OC1[C@@H](O[Si](C)(C)C(C)(C)C)[C@@H](CNC(=O)NC(=O)CF)O[C@H]1n1cnc2c(NC(=O)Nc3ccccc3)ncnc21 (some centres undefined) | 9.23 µM | 31.3 µM | 5.21 µM | 20.5 µM | 9.31 µM | > 50 µM | 14.6 µM | > 50 µM | 14.3 µM | > 50 µM | 11.1 µM | 23.4 µM | 14.5 µM | > 50 µM | > 50 µM | > 50 µM | 16.5 µM | 41.7 µM | 20 µM | > 50 µM |
| CC1=CCCC2C1(C)CCC(C)C2(C)Cc1cc(O)ccc1O (centres undefined) | 15.6 µM | 30 µM and 24.6 µM | 9.85 µM | 24.8 µM and 15.7 µM | 15.2 µM | 28.9 µM and 35.7 µM | – | 27 µM | 7.38 µM | 20.4 µM and 17.5 µM | 9.97 µM | 22.2 µM and 19.3 µM | 11.1 µM | 26.3 µM and 23.6 µM | – | 29.9 µM and 31.1 µM | – | 25.5 µM | 9.99 µM | 29.1 µM and 26.4 µM |
| CN1CCC2(CC1)NC(=O)c1c(c3ccc(Cl)c(Cl)c3n1C)C2C#N (centres undefined) | 1.89 µM | 3.95 µM | 3.11 µM | 9.17 µM | 9.72 µM | 23.2 µM | 2.29 µM | 6.58 µM | 11.4 µM | 25.7 µM | 5.32 µM | 12.3 µM | 5.51 µM | 17.9 µM | 1.92 µM | 3.89 µM | 10.5 µM | 23.4 µM | 2.12 µM | 4.71 µM |
| C[C@@H](NC(=O)/C(C#N)=C/c1ccc([N+](=O)[O-])cc1)c1ccccc1 | 1.87 µM | 3.53 µM | 1.89 µM | 3.79 µM | 2.88 µM | 8.91 µM | 2.7 µM | 7.63 µM | 2.08 µM | 5.02 µM | 2.39 µM | 5.65 µM | 1.7 µM | 3.37 µM | 1.95 µM | 3.83 µM | 5.07 µM | 12.1 µM | 2.38 µM | 7.09 µM |
| COc1ccc2c(c1)CC[C@@H]1[C@@H]2CC[C@]2(C)c3c(cc(C(=O)O)c4sccc34)C[C@@H]12 | 11 µM | 26.7 µM | 11.2 µM | 24.8 µM | 19.6 µM | 38.5 µM | 18.4 µM | 39.6 µM | 18.5 µM | 39.2 µM | 24.7 µM | 72.1 µM | 16.7 µM | 35.1 µM | 15.8 µM | 33.4 µM | 19.2 µM | 48.1 µM | 26.7 µM | 61.4 µM |
| COc1cccc(/C=N/NC(=O)c2ccccc2N2CCCC2)c1O | 47 µM | > 100 µM | 3.3 µM | > 100 µM | 3.58 µM | > 100 µM | 18.3 µM | > 100 µM | 7.85 µM | > 100 µM | 3.3 µM | > 100 µM | 3.73 µM | 24.1 µM | 5.27 µM | > 100 µM | 5.38 µM | > 100 µM | 3.05 µM | > 100 µM |
| Cn1nc(C(F)(F)F)cc1-c1c[nH]c(OCc2ccc(Cl)cc2)c(-c2ccc(Cl)c(C(F)(F)F)c2)c1=O | 1.23 µM | 6.56 µM | 0.927 µM | 4.51 µM | 1.3 µM | 3.55 µM | 1.37 µM | 6.75 µM | 1.05 µM | 5.95 µM | 1.19 µM | 19.5 µM | 1.24 µM | 3.96 µM | 1.07 µM | 3.97 µM | 1.8 µM | > 36.6 µM | 0.919 µM | 3.6 µM |
| C[C@@H]1CCC([C@@H](C)[C@H]2CC[C@H]3[C@@H]4CC[C@H]5C[C@@H](O)CC[C@]5(C)[C@H]4CC[C@]23C)=NC1 | – | 55.4 µM | – | > 100 µM | – | > 51.3 µM | – | > 100 µM | – | > 100 µM | – | > 100 µM | – | > 100 µM | – | > 77.3 µM | – | > 100 µM | – | > 100 µM |
| Cc1ccc2c(c1)c(Sc1ccc(C(=O)NO)cc1)c1n2CN(C)CC1 | 1.64 µM | 3.67 µM | 1.59 µM | 3.54 µM | 1.61 µM | 3.83 µM | 1.58 µM | 3.37 µM | 1.8 µM | 3.85 µM | 1.93 µM | 5.63 µM | 1.4 µM | 2.92 µM | 1.58 µM | 3.63 µM | 2.19 µM | 6.73 µM | 1.48 µM | 5.37 µM |
